Assay results as given in BindingDB's records for doi:10.1074/jbc.M111.290619 (Washington University, 2011).
“And” between values parts separate entries of the source, which are not always exact repeats. Identical values can stand only once.

Legend:
[1] = biological target: T1, Phosphoethanolamine N-methyltransferase 2 (Caenorhabditis elegans, UniProt Q22993); test: Radiochemical Assay; details: pH 8; 25 °C
Excerpt: (§1) A radiochemical assay was used to measure enzymatic activity.

[2] = biological target: T2, Phosphoethanolamine N-methyltransferase 1 (Caenorhabditis elegans, UniProt Q86NB3); test: Radiochemical Assay; details: pH 8; 25 °C
T2 sequence (Q86NB3 whole entry): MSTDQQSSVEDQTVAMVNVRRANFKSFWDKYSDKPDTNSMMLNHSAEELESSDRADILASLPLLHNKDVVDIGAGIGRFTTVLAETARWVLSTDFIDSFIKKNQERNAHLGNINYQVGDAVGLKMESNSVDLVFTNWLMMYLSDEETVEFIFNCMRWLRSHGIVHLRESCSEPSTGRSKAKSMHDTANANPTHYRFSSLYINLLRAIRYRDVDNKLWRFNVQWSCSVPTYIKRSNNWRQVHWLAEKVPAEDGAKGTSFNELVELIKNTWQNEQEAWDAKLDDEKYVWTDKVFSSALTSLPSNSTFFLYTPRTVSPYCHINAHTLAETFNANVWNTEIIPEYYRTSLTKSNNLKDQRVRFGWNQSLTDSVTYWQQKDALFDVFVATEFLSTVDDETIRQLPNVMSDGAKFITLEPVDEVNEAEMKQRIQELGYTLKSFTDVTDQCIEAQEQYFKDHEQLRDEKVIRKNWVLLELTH
Excerpt: as §1

[3] = biological target: T2, Phosphoethanolamine N-methyltransferase 1; test: Calorimetric (ITC) Assay; details: pH 7.5
Procedure: (§2) For standard ITC analysis of ligand binding, proteins were dialyzed overnight in 25 mm Hepes (pH 7.5), 100 mm NaCl, 5 mm -mercaptoethanol, and 5% glycerol at 4 °C. Ligands (i.e. AdoMet, AdoCys, pEA, and pCho) were prepared in the same buffer. AdoMet and AdoCys concentrations were determined spectrophotometrically (A260 nm; = 15,400 m 1 cm 1) (19). ITC experiments were performed using a VP-ITC calorimeter (Microcal, Inc.). Injections (10 ul) of ligand were added to a sample solution containing protein using a computer-controlled 250-ul microsyringe at intervals of 5 6 min.

[4] = biological target: T1, Phosphoethanolamine N-methyltransferase 2; test: Calorimetric (ITC) Assay; details: pH 7.5
Procedure: as §2

T1 sequence (Q22993 whole entry): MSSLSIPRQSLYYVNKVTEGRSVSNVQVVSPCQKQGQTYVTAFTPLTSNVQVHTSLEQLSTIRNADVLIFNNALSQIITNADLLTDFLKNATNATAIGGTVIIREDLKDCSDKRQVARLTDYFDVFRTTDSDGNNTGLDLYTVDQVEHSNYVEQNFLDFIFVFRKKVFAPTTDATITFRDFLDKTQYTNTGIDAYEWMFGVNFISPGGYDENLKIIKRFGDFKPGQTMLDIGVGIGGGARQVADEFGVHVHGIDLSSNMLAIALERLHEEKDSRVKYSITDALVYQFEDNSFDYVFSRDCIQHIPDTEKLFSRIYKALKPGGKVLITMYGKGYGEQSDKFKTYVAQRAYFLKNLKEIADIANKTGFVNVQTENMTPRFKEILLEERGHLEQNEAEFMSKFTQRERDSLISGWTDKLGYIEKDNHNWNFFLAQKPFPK

Compound | IC50 [1] [µM] | IC50 [2] [µM] | Kd ([3]; 4 °C) | Kd ([3]; 5 °C) [µM] | Kd ([3]; 10 °C) [µM] | Kd ([3]; 15 °C) [µM] | Kd ([3]; 20 °C) [µM] | Kd ([3]; 25 °C) [µM] | also measured
Nc1c2c(nc3ccccc13)CCCC2 | 3500 | 23400 |  |  |  |  |  |  | 
C[S+](CC[C@H](N)C(=O)[O-])C[C@H]1O[C@@H](n2cnc3c(N)ncnc32)[C@H](O)[C@@H]1O (stereo partly drawn) [(2S)-2-amino-4-({[(2S,3S,4R,5R)-5-(6-amino-9H-purin-9-yl)-3,4-dihydroxyoxolan-2-yl]methyl}(methyl)sulfanylium)butanoate] |  |  | 47.2 µM and 19.1 µM and 10.7 µM and 5.8 µM | 6.1 | 8.2 | 11.4 | 16.6 | 26.7 | 
Nc1ncnc2c1ncn2[C@H]1O[C@@H](CSCC[C@@H](N)C(=O)O)[C@H](O)[C@@H]1O [AdoCys] |  |  | 2.9 µM and 2.2 µM and 1.3 µM and 0.9 µM | 0.7 | 0.8 | 1.1 | 1.6 | 2.5 | Kd ([4]; 4 °C): 8.6 µM and 6 µM and 9.3 µM and 6.1 µM; Kd ([4]; 5 °C): 2 µM; Kd ([4]; 10 °C): 2.5 µM; Kd ([4]; 15 °C): 3 µM; Kd ([4]; 20 °C): 4.2 µM; Kd ([4]; 25 °C): 5.4 µM
CCN(CC)Cc1cc(Nc2ccnc3cc(Cl)ccc23)ccc1O [Amodiaquin] | 3100 | 3400 |  |  |  |  |  |  | 
Nc1ncnc2c1ncn2[C@@H]1O[C@H](C[C@@H](N)CC[C@H](N)C(=O)O)[C@@H](O)[C@H]1O [Sinefungin] | 91.5 | 33.8 |  |  |  |  |  |  | 
CCCCCCCCCCCCCCCCOP(=O)([O-])OCC[N+](C)(C)C [n-hexadecylphosphocholine] | 12.5 | 125 |  |  |  |  |  |  | 
